Measured values from US11149037B2, “Pyrazole MAGL inhibitors” (H. Lundbeck A/S, priority 2017, dated 2021).

Assays:
Assay type in all cases: biochemical
MAGL [1] = molecular target: MAGL (Mus musculus (Mouse), UniProt O35678); test: In vitro competitive activity-based protein profiling, mouse proteomes (brain membrane fraction or cell lysates); conditions: mouse proteome, read-out: MAGL % inh. 1 μM (mouse)
Summary of the method: (§1)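 Activity of MAGL and FAAH was quantified from fluorescent gel band intensities. Beforehand, inhibitors at several concentrations competed against subsequent probe labelling (FP-Rh, JW912 or HT-01) in species-matched proteomes, each step 30 min at 37° C.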

FAAH [2] = molecular target: FAAH (Mus musculus (Mouse), UniProt O08914); test: as above; conditions: mouse proteome, read-out: FAAH % inh. 1 μM (mouse)
Summary of the method: as §1

MAGL [3] = molecular target: MAGL (Homo sapiens (Human), UniProt Q99685); test: In vitro competitive activity-based protein profiling, human proteomes (prefrontal cortex or PC3 cell membrane fractions); conditions: human proteome; for inhibition at 1 µM: read-out: MAGL % inh. 1 μM (human)
Summary of the method: as §1

FAAH [4] = molecular target: FAAH (Homo sapiens (Human), UniProt O00519); test: as above; conditions: human proteome; for inhibition at 1 µM: read-out: FAAH % inh. 1 μM (human)
Summary of the method: as §1

Sequence of MAGL (Mus musculus (Mouse), UniProt O35678) (O35678 whole entry): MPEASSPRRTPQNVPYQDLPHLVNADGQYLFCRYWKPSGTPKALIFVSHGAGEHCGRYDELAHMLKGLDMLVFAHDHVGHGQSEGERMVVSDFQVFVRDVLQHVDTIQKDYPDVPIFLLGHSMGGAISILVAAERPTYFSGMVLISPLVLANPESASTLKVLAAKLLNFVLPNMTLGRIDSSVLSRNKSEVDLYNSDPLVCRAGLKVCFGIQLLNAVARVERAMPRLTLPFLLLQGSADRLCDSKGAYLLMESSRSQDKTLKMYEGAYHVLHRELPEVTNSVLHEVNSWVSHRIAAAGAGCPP
Sequence of FAAH (Homo sapiens (Human), UniProt O00519) (O00519 whole entry): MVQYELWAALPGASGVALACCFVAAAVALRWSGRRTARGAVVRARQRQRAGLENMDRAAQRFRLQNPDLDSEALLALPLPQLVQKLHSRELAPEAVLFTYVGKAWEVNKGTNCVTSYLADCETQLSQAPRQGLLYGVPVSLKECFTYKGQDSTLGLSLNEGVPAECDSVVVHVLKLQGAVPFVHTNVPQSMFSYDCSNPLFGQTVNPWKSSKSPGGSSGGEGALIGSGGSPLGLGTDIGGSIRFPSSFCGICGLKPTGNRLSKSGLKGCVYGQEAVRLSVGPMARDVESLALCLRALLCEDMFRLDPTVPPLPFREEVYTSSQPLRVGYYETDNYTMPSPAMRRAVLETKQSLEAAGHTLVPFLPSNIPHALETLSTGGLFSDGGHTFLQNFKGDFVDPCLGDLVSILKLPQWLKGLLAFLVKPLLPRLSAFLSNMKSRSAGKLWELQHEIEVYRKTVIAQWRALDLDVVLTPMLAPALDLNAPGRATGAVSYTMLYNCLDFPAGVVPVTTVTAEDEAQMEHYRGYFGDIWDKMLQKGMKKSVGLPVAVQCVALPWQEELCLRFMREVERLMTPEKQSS
Sequence of MAGL (Homo sapiens (Human), UniProt Q99685) (Q99685 whole entry): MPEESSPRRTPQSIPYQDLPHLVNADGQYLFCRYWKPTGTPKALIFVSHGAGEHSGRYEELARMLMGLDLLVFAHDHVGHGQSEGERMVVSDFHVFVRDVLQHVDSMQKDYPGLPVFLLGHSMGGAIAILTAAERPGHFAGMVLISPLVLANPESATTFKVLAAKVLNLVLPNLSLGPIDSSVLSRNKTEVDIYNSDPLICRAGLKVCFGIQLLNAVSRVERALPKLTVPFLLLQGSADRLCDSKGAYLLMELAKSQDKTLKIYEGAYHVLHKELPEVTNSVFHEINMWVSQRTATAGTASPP
Sequence of FAAH (Mus musculus (Mouse), UniProt O08914) (O08914 whole entry): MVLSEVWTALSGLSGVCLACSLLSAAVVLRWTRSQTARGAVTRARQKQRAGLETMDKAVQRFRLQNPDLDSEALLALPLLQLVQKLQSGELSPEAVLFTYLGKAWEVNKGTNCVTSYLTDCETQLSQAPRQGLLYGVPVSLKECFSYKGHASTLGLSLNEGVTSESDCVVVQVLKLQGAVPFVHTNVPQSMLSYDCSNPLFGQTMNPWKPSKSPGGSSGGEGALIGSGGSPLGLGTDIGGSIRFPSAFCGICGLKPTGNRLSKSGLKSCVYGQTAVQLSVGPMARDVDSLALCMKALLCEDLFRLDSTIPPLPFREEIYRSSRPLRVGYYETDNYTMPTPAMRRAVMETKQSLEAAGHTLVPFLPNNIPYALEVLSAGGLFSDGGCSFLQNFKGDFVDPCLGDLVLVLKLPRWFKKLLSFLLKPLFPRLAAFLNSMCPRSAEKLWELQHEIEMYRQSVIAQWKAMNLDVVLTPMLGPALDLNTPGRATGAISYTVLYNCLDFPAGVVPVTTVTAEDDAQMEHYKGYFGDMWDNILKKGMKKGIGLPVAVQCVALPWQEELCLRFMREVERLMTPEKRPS

Row | SMILES | inhibition at 1 µM (MAGL [1]) [%] | inhibition at 1 µM (FAAH [2]) [%] | inhibition at 1 µM (MAGL [3]) [%] | IC50 (MAGL [3]) [µM] | inhibition at 1 µM (FAAH [4]) [%] | IC50 (FAAH [4]) [µM] | inhibition at 10 µM (MAGL [3]; 10 μM, read-out: MAGL % inh. (human) @ 10 μM) [%]
1 | CS(=O)(=O)Nc1ccn(C(=O)N2CCN(Cc3ccc(Cl)c(OC4CCCC4)c3)CC2)n1 [Example 111, N-(1-(4-(4-Chloro-3-(cyclopentyloxy)benzyl)piperazine-1-carbonyl)-1H-pyrazol-3-yl)methanesulfonamide] | > 75 | 0 to 25 | > 75 |  | 0 to 25 |  | 
2 | CS(=O)(=O)Nc1ccn(C(=O)N2CCC(Oc3ccc(C(F)(F)F)c(OC4CCCC4)c3)CC2)n1 [Example 110, N-(1-(4-(3-(Cyclopentyloxy)-4-(trifluoromethyl)phenoxy)piperidine-1-carbonyl)-1H-pyrazol-3-yl)methanesulfonamide] | > 75 | 0 to 25 | > 75 |  | 0 to 25 |  | 
3 | CS(=O)(=O)Nc1ccn(C(=O)N2CCC3(CCN(Cc4ccc(C(F)(F)F)c(N5CCCC5)c4)C3)CC2)n1 [Example 73, N-(1-(2-(3-(Pyrrolidin-1-yl)-4-(trifluoromethyl)benzyl)-2,8-diazaspiro[4.5]decane-8-carbonyl)-1H-pyrazol-3-yl)methanesulfonamide] | > 75 | 50 to 75 | > 75 |  | 0 to 25 |  | 
4 | CS(=O)(=O)Nc1ccn(C(=O)N2CCC(Oc3ccc(C(F)(F)F)cc3C(=O)N3CCCC3)CC2)n1 [Example 101, N-(1-(4-(2-(Pyrrolidine-1-carbonyl)-4-(trifluoromethyl)phenoxy)piperidine-1-carbonyl)-1H-pyrazol-3-yl)methanesulfonamide] | 50 to 75 | 0 to 25 | > 75 |  | 0 to 25 |  | 
5 | CS(=O)(=O)Nc1ccn(C(=O)N2CC3CN(Cc4cccc(C(F)(F)F)c4)CC3C2)n1 (stereo not drawn) [Example 114, N-(1-(5-(3-(Trifluoromethyl)benzyl)octahydropyrrolo[3,4-c]pyrrole-2-carbonyl)-1H-pyrazol-3-yl)methanesulfonamide] | 25 to 50 | > 75 | > 75 |  | 25 to 50 |  | 
6 | CS(=O)(=O)Nc1ccn(C(=O)N2CCN(Cc3cc4ccc(C(F)(F)F)cc4s3)CC2)n1 [Example 52, N-(1-(4-((6-(Trifluoromethyl)benzo[b]thiophen-2-yl)methyl)piperazine-1-carbonyl)-1H-pyrazol-3-yl)methanesulfonamide] | > 75 | 0 to 25 | > 75 | < 0.1 | 0 to 25 | 1 to 10 | 
7 | Cc1c(CN2CCN(C(=O)n3ccc(NS(C)(=O)=O)n3)CC2)[nH]c2c(Cl)cccc12 [Example 65, N-(1-(4-((7-Chloro-3-methyl-1H-indol-2-yl)methyl)piperazine-1-carbonyl)-1H-pyrazol-3-yl)methanesulfonamide] | > 75 | 0 to 25 | > 75 |  | 0 to 25 |  | 
8 | CS(=O)(=O)Nc1ccn(C(=O)N2CC3CN(Cc4ccc(C(F)(F)F)cc4NCCCC(=O)O)CC3C2)n1 (stereo not drawn) [Example 78, 4-((2-((5-(3-(Methylsulfonamido)-1H-pyrazole-1-carbonyl)hexahydropyrrolo[3,4-c]pyrrol-2(1H)-yl)methyl)-5-(trifluoromethyl)phenyl)amino)butanoic acid] | > 75 | 0 to 25 | > 75 |  | 0 to 25 |  | 
9 | CS(=O)(=O)Nc1ccn(C(=O)N2CC3CN(Cc4cc(Cl)ccc4C(F)(F)F)CC3C2)n1 (stereo not drawn) [Example 45, N-(1-(5-(5-Chloro-2-(trifluoromethyl)benzyl)octahydropyrrolo[3,4-c]pyrrole-2-carbonyl)-1H-pyrazol-3-yl)methanesulfonamide] | 0 to 25 | 0 to 25 |  |  | 0 to 25 |  | 0 to 25
10 | CN(Cc1ccc(C(F)(F)F)c(N2CCC(F)CC2)c1)C1(C)CCN(C(=O)n2ccc(NS(C)(=O)=O)n2)CC1 [Example 2, N-(1-(4-((3-(4-fluoropiperidin-1-yl)-4-(trifluoromethyl)benzyl)(methyl)amino)-4-methylpiperidine-1-carbonyl)-1H-pyrazol-3-yl)methanesulfonamide] | > 75 | 0 to 25 | > 75 |  | 0 to 25 |  | 
11 | C[C@H]1CCCN1c1cc(CN2CCN(C(=O)n3ccc(NS(C)(=O)=O)n3)CC2)ccc1C(F)(F)F [Example 151, (S)-N-(1-(4-(3-(2-Methylpyrrolidin-1-yl)-4-(trifluoromethyl)benzyl)piperazine-1-carbonyl)-1H-pyrazol-3-yl)methanesulfonamide] | > 75 | 0 to 25 | > 75 |  | 0 to 25 |  | 
12 | CS(=O)(=O)Nc1ccn(C(=O)N2CCC(Oc3ccc(Cl)c(OC4CCCC4)c3)CC2)n1 [Example 6, N-(1-(4-(4-chloro-3-(cyclopentyloxy)phenoxy)piperidine-1-carbonyl)-1H-pyrazol-3-yl)methanesulfonamide] | > 75 | 0 to 25 | > 75 |  | 0 to 25 |  | 
13 | CC(=O)Nc1ccn(C(=O)N2CCC3(CCCN3Cc3ccc(Cl)cc3OCCCC(=O)O)CC2)n1 [Example 105, 4-(2-((8-(3-Acetamido-1H-pyrazole-1-carbonyl)-1,8-diazaspiro[4.5]decan-1-yl)methyl)-5-chlorophenoxy)butanoic acid] | > 75 | 0 to 25 | > 75 |  | 0 to 25 |  | 
14 | CS(=O)(=O)Nc1ccn(C(=O)N2CCN(Cc3ccc(Cl)c(N4CC5(CCOCC5)C4)c3)CC2)n1 [Example 8, N-(1-(4-(4-chloro-3-(7-oxa-2-azaspiro[3.5]nonan-2-yl)benzyl)piperazine-1-carbonyl)-1H-pyrazol-3-yl)methanesulfonamide] | > 75 | 0 to 25 | > 75 |  | 0 to 25 |  | 

Results, then the molecule that gave them:

Row | inhibition at 1 µM (MAGL [1]) [%] | inhibition at 1 µM (FAAH [2]) [%] | inhibition at 1 µM (MAGL [3]) [%] | IC50 (MAGL [3]) [µM] | inhibition at 1 µM (FAAH [4]) [%] | IC50 (FAAH [4]) [µM] | inhibition at 10 µM (MAGL [3]; 10 μM, read-out: MAGL % inh. (human) @ 10 μM) [%] | SMILES
15 | > 75 | > 75 | > 75 | < 0.1 | > 75 | 0.1 to 1 |  | CC(=O)Nc1ccn(C(=O)N2CC3CN(Cc4cc(F)cc(Cl)c4)CC3C2)n1 (stereo not drawn) [Example 145, N-(1-(5-(3-Chloro-5-fluorobenzyl)octahydropyrrolo[3,4-c]pyrrole-2-carbonyl)-1H-pyrazol-3-yl)acetamide]
16 | 0 to 25 | 0 to 25 | > 75 |  | 0 to 25 |  |  | CS(=O)(=O)Nc1ccn(C(=O)N2CCC3(CCN(Cc4cccc(Cl)c4)C3)CC2)n1 [Example 163, N-(1-(2-(3-Chlorobenzyl)-2,8-diazaspiro[4.5]decane-8-carbonyl)-1H-pyrazol-3-yl)methanesulfonamide]
17 | > 75 | 0 to 25 | > 75 | < 0.1 | 0 to 25 | 1 to 10 |  | CC(=O)Nc1ccn(C(=O)N2CCC3(CCCN3Cc3cc4cc(Cl)c(Cl)cc4[nH]3)CC2)n1 [Example 43, N-(1-(1-((5,6-Dichloro-1H-indol-2-yl)methyl)-1,8-diazaspiro[4.5]decane-8-carbonyl)-1H-pyrazol-3-yl)acetamide]
18 | > 75 | 0 to 25 | > 75 |  | 0 to 25 |  |  | Cc1c(CN2CCN(C(=O)n3ccc(NS(C)(=O)=O)n3)CC2)sc2ccccc12 [Example 57, N-(1-(4-((3-Methylbenzo[b]thiophen-2-yl)methyl)piperazine-1-carbonyl)-1H-pyrazol-3-yl)methanesulfonamide]
19 | > 75 | 0 to 25 | > 75 |  | 0 to 25 |  |  | CS(=O)(=O)Nc1ccn(C(=O)N2CCN(Cc3ccc(Cl)c(N4CC[C@@H](F)C4)c3)CC2)n1 [Example 122, (R)-N-(1-(4-(4-Chloro-3-(3-fluoropyrrolidin-1-yl)benzyl)piperazine-1-carbonyl)-1H-pyrazol-3-yl)methanesulfonamide]
20 | > 75 | > 75 | > 75 | < 0.1 | > 75 | 1 to 10 |  | CC(=O)Nc1ccn(C(=O)N2CC3CN(Cc4cc(Cl)cc(C(F)(F)F)c4)CC3C2)n1 (stereo not drawn) [Example 146, N-(1-(5-(3-Chloro-5-(trifluoromethyl)benzyl)octahydropyrrolo[3,4-c]pyrrole-2-carbonyl)-1H-pyrazol-3-yl)acetamide]
21 | > 75 | 0 to 25 | > 75 |  | 0 to 25 |  |  | CS(=O)(=O)Nc1ccn(C(=O)N2CCC3(CCN(Cc4ccc(C(F)(F)F)cc4N4CCC(F)CC4)CC3)C2)n1 [Example 60, N-(1-(8-(2-(4-Fluoropiperidin-1-yl)-4-(trifluoromethyl)benzyl)-2,8-diazaspiro[4.5]decane-2-carbonyl)-1H-pyrazol-3-yl)methanesulfonamide]
22 | 0 to 25 | 0 to 25 | > 75 |  | 0 to 25 |  |  | CS(=O)(=O)Nc1ccn(C(=O)N2CCC3(CCN(Cc4ccc(Cl)cc4)C3)CC2)n1 [Example 164, N-(1-(2-(4-Chlorobenzyl)-2,8-diazaspiro[4.5]decane-8-carbonyl)-1H-pyrazol-3-yl)methanesulfonamide]
